Measurements taken from patent US10287530B2, “Surfactants based on monounsaturated fatty alcohol derivatives” (priority 2013, dated 2019).
Where “and” joins values, the source holds several entries; their conditions need not be identical. Equal values may be shown once. Read-outs that look alike come from different tables or passages of the source.

How the values were obtained:
[1] = Interfacial tension (IFT) against light mineral oil, synergy study with cationic surfactant; assay type: physicochemical; settings: for IFT at 0.1% actives/mineral oil (blend): 1:1 molar blend of the anionic with Ammonyx Cetac 30, 0.1% actives, light mineral oil; for Calculated IFT (no synergy): expected IFT of the 1:1 molar blend with Ammonyx Cetac 30 by ideal mixing; for Synergy?: measured versus expected IFT of the 1:1 molar blend with Ammonyx Cetac 30; for IFT at 0.1% actives (single component): 0.1 wt. % active against light mineral oil, ambient temperature
Method: (§1) The surfactant blends tested are prepared at a 1:1 molar ratio without any pH adjustment. Dilutions are made using deionized water to the desired actives level. Actives amounts are wt. % unless indicated otherwise. Appearances are reported at ambient temperature for samples prepared within the last 24 h.
Interfacial tension (IFT) of all the individual components and their blends is measured at 0.1 wt. % active against light mineral oil at ambient temperature using a Kruss DSA-20 pendent drop tensiometer. The drop is blown out at 600 μL/min., and a video is recorded for 100 s. The video frames taken during the last 15 s are analyzed and used for the IFT calculation.
For blends having an IFT less than 0.5 mN/m, the IFT is determined using a spinning drop tensiometer (University of Texas 500) at 25° C. Oil density=0.877 g/cm^3 and surfactant density=0.997 g/cm^3 are used for the IFT calculation.
The expected IFT for a blend is calculated based on ideal mixing (non-synergistic) using the active component in each blend. The equation used is given as: Expected IFT=X*IFTa+(1−X)*IFTb where X is the actives % of component A, IFTa is the IFT of component A, and IFTb is the IFT of component B. If the measured IFT for a blend is less than the expected IFT, then the blend is synergistic. If the measured IFT for a blend is higher than the expected IFT, the system is antagonistic.

[2] = assay type: physicochemical; settings: for Rating: overall, versus control
Method: Surfactant candidates for water soluble herbicide applications are examined as a replacement for the anionic, nonionic, or anionic/nonionic blend portion and compared to a known industry adjuvant standard for use in paraquat, a water soluble herbicide concentrate formulation. A standard dilution test is conducted whereby the concentrates are diluted in water to determine if solubility is complete.
A known industry paraquat adjuvant (2.8 g) is added and vigorously mixed for 30 s. Deionized water (8.07 g) is added, and mixing resumes for 30 s. […] The cylinder is stoppered and inverted ten times. Solubility is recorded as complete or incomplete. Cylinders are allowed to stand and the amount (in mL) and type of separation are recorded after 30 min., 1 h, 2 h, and 24 h. Results of the solubility testing appear in Table 4 below.
An eight to ten mole alkyl phenol ethoxylate surfactant (0.7 g) is added and vigorously mixed for 30 s. Test sample (0.7 g) is added and mixing resumes for 30 s. Deionized water (4.03 g) is added, and mixing resumes for 30 s.
Test sample (0.7 g) is added and vigorously mixed for 30 s. Sodium linear alkylbenzene sulfonate (“NaLAS,” 0.7 g) is added and mixing resumes for 30 s. Deionized water (4.03 g) is added, and mixing resumes for 30 s.
Test sample (1.4 g) is added and vigorously mixed for 30 s. Deionized water (4.03 g) is added, and mixing resumes for 30 s.

[3] = Surfactant phase behavior study by cross-polarized microscopy; assay type: physicochemical; settings: in deionized water, room temperature (20-22° C.); boundaries are estimates (±5%)
Method: Phase behavior is observed using an Olympus BH-2 cross-polarized microscope at 100-400× and room temperature (20° C. to 22° C.). The monounsaturated C11 alcohol derivatives (sulfates, ethoxylate sulfates, and alcohol ethoxylates) are compared with their saturated analogs. Samples are prepared by diluting the most concentrated product gradually with deionized water. When the surfactant concentration approaches a phase transition, the concentration is varied at 2-4% intervals to estimate the phase boundary. The actives level reported in Table 6 for each phase boundary is within ±5% of the true boundary. Samples are loaded between a microscope slide and cover glass and are allowed to equilibrate before observation. Microscopic texture is analyzed and used to determine the phase. For some samples, an AR 2000 rheometer (TA Instruments) is used to measure viscosity at 25° C. to further verify phase behavior.

[4] = Appearance and solubility of surfactants and of 1:1 molar blends with cationic surfactant; assay type: physicochemical; settings: for Appearance, 0.1%: 1:1 molar blend of the anionic with Ammonyx Cetac 30, 0.1% actives; for Appearance, 0.1% / Appearance, 1.0%: ambient temperature; for Appearance, 1.0%: 1:1 molar blend of the anionic with Ammonyx Cetac 30, 1.0% actives
Method: as §1

[5] = tested on: zein, yellow corn (maize) protein
Method: The zein test is based on solubilization by surfactants of a yellow corn (maize) protein that is normally insoluble in water unless it is denatured. The test gravimetrically determines the amount of zein dissolved by a surfactant solution. The solubility of zein in surfactant solutions correlates well with skin irritation or roughness caused by the surfactant. […] A higher zein number corresponds to a greater degree of irritation.
A 1% actives solution of each test surfactant (120 mL) is prepared. The pH of each solution is adjusted to about 7.0 with dilute aq. sulfuric acid or dilute aq. sodium hydroxide. The surfactant solution is warmed to 45° C. Zein powder (1.50 g) is added to each of three jars. Surfactant (25.0 g of 1% actives solution) is added to each jar, and to one empty jar to be used as a blank. The solutions are mixed using magnetic stirring on a temperature-controlled hotplate at 45° C. for 60 min. Each mixture is then centrifuged (2500 rpm, 15 min.), and undissolved zein powder is isolated by vacuum filtration. The residue is washed with deionized water and dried (55° C., 24 h) to constant weight. The amount of undissolved zein protein is found gravimetrically, and the results from three runs are averaged to give the % of solubilized zein and zein number.

[6] = Anionic test sample, 342 ppm water
[7] = Nonionic test sample, 342 ppm water
[8] = Adjuvant (anionic/nonionic) test sample, 342 ppm water
[9] = corn (maize), 60 min, 1 % actives, pH 7
[10] = 1% actives solution, pH about 7.0, 45° C., 60 min, average of three runs
[11] = relative to 1% actives Stepanol WA-Extra PCK (SLS) control = 100, higher = more irritating, average of three runs

Compound	IFT at 0.1% actives/mineral oil (blend) [1] [mN/m]	Calculated IFT (no synergy) [1] [mN/m]	Synergy? [1]	IFT at 0.1% actives (single component) [1]	Emulsion stability, mL separation, 1 h [2, 6] [mL]	Emulsion stability, mL separation, 24 h [2, 7] [mL]	Rating [2]	Estimated Phase Region as a Function of % Actives Level: Hexagonal [3]	Estimated Phase Region as a Function of % Actives Level: Isotropic Clear [3]	Estimated Phase Region as a Function of % Actives Level: Lamellar [3]	Estimated Phase Region as a Function of % Actives Level: Solid/gum/paste [3]	Solubility [4]	Appearance, 1.0% [4]	Emulsion stability, mL separation, 1 h [2, 8] [mL]	Emulsion stability, mL separation, 24 h [2, 6] [mL]	Emulsion stability, mL separation, 1 h [2, 7] [mL]	Emulsion stability, mL separation, 24 h [2, 8] [mL]	also measured
1-Undecanol, 1EO Ether Sulfate, Ammonium Salt [Sat. 1EO NH4 sulfate]	0.85	6.2	high	12.40 mN/m	0	0	good	26-58 % actives	0-26 % actives	67-85 % actives	85-100 % actives	–	–	–	–	–	–	Estimated Phase Region as a Function of % Actives Level: Cubic [3]: 58-67 % actives
1-Undecanol, 3EO Ether Sulfate, Sodium Salt [Sat. C11 alcohol 3EO Na sulfate]	0.03	4.58	very high	8.80 mN/m	0	0.5	good	33-58 % actives	0-33 % actives	58-82 % actives	82-100 % actives	fair-poor	separated	0	0	0.1	–	Appearance, 0.1% [4]: hazy liquid; % solubilized zein [5]: 22.3%; zein number [5]: 44.9
CCCCCCCCCCCCCCCC[N+](C)(C)C.[Cl-] [Ammonyx ® Cetac 30 (cetrimonium CI), cetrimonium CI]	–	–	–	0.35 mN/m and 0.38 mN/m	–	–	–	–	–	–	–	–	–	–	–	–	–	–
CCCCCCCCCCCOS(=O)(=O)[O-].[Na+] [Sat. C11 alcohol Na sulfate, 1-Undecanol Sulfate, Sodium Salt]	2.67	8.35	above average	16.34 mN/m	0	0.3	good	33-43 % actives	0-33 % actives	–	43-100 % actives	–	separated	0.2	0	0.2	0.4	Solubility ([4]; 1:1 molar blend of the anionic with Ammonyx Cetac 30): poor; Appearance, 0.1% [4]: separated; sol (solubility) [2, 8]: I; sol (solubility) ([2]; Anionic test sample: replaces anionic portion, paraquat concentrate in 342 ppm water, 30° C.): S; sol (solubility) ([2]; Nonionic test sample: replaces nonionic portion (with NaLAS), 342 ppm water): I; % solubilized zein [5, 9]: 52.9%; zein number [5, 9]: 107
Undecylenic Alcohol Sulfate, Sodium Salt [Unsat. C11 alcohol Na sulfate]	0.17	3.16	–	5.95 mN/m	0	0.4	good	–	0-68 % actives	–	68-100 % actives	good	–	0	0	0.25	0.25	Synergy? ([1]; listed as Unsat C11 Na sulfate, Sulfate, Sodium Salt): very high; Synergy? ([1]; listed as unsaturated C11 alcohol sulfate, sodium salt, Sulfate, Sodium Salt): very high synergy; % solubilized zein [5, 10]: 9.6%; zein number [5, 11]: 19.3
Undecylenic Alcohol, 1EO Ether Sulfate, Ammonium Salt [Unsat. 1EO NH4 sulfate]	0.60	8.8	very high	17.22 mN/m	–	–	good	31-58 % actives	0-31 % actives	58-91 % actives	91-100 % actives	–	–	0	0	0	0	–
Undecylenic Alcohol, 3EO Ether Sulfate, Sodium Salt [Unsat. C11 alcohol 3EO Na sulfate]	0.17	2.73	high	5.10 mN/m	0	0.5	good	–	0-70 % actives	–	80-100 % actives	good	hazy liquid	0	0	0.2	–	% solubilized zein [5, 10]: 16.5%; zein number [5, 11]: 31.6; Estimated Phase Region as a Function of % Actives Level: Solid/isotropic [3]: 70-80 % actives
